Like-named read-outs stand apart in the source and are kept apart here.

Data set [1] has as its system Caco-2 monolayers.
Method: (§2) Human colorectal adenocarcinoma Caco-2 cell line (HTB-37) obtained from American Type culture Collection (ATCC) (Manassas, VA, USA) was used for all experiments. Cell lines were maintained as per the provider's protocol. Cell culture was performed in Hyclone® DMEM high glucose medium (Thermo Fisher Scientific, Pittsburgh, PA, USA) supplemented with 50 IU/ml of penicillin, 50 mg/L of streptomycin, and 100 ml/L of fetal bovine serum at 37°C in a humidity-controlled 5% CO2 cell culture incubator. Cells were split at a ratio of 1∶3 after reaching 90% confluence. All transwell experiments were performed with cells between 5th–14th passages due to possible phenotypic differences between cells from high and low passage intervals. Cells were cultivated for at least 2 passages before seeding onto transwell filter supports to stabilize the cell phenotype 12].
(§3) Transwell experiments were performed with slight modifications to the protocols provided by the manufacturer (BD Biosciences, Bedford, MA, USA). For the development of the transwell assay system for permeability experiments, Caco-2 cells were seeded onto fibrillar collagen coated polyethylene terephthalate (PET) filter supports (1 µm pore size) of BD Biocoat™ HTS Caco-2 assay system (BD Biosciences, Bedford, MA, USA) according to manufacturer's protocol with slight modifications. Briefly, Caco-2 cells were seeded onto the filter supports at a concentration of 200,000 cells/insert (6.6×10^5 cells/cm^2) using basal seeding medium (with MITO+ serum extender) provided in the HTS system, and were incubated in cell culture incubator (37°C, 5% CO2). Cells were fed from both sides using the Multiwell feeder tray. After 24 hrs, the feeding medium was replaced with MITO+ serum extender supplemented Entero-STIM medium, and growing monolayers were incubated as described earlier. Upon incubation for 48–72 hrs, Caco-2 cells developed a tight junction monolayer, integrity of which was determined by TEER measurements.
(§4) The integrity of Caco-2 monolayer was determined by measuring the transepithelial electrical resistance (TEER) of the cell monolayer grown on filter supports using Millicell-ERS electrical resistance measuring system (Millipore, Bedford, MA) using chopstick electrodes. Briefly, the Caco-2 inserts were transferred to a 24-well culture plate with 1400 µl medium in the feeding well, and 500 µl in culture inserts. The electrodes were immersed in a way that shorter electrode was in the insert and longer electrode in the outer well. […] Based on the literature, a resistance reading of 150–200 Ω.cm^2 was considered as indicative of a confluent Caco-2 monolayer with tight junctions.
(§5) Briefly, cells were pre-conditioned with basal seeding medium for 30 minutes before starting the experiment at 37°C. […] The basolateral chamber consisted 1400 µl of the same growth medium as per manufacturer's protocol. The plates were incubated for 5 hrs at room temperature with gentle shaking (5 rocks/minute on a rocker, so as to mimic intestinal peristaltic movement). TEER measurements were performed at predetermined time intervals (0. 0.25, 0.5, 1, 2, 3, and 5 hrs). At the same time-points, 100 µl samples were withdrawn from the basolateral chamber to quantify the total amount of FITC-ins/sulforhodamine-B transported across the monolayer. The withdrawn sample was immediately replaced with equivalent amount of the experimental medium.
(§6) The apparent permeability coefficients (Papp) of all polypeptides were calculated using the following equation 19]: [drawing 1]
(§7) Where dQ/dt is the amount of solutes transported across the Caco-2 barrier in time dt, C0 is the solute concentration in apical compartment at time zero, and A is the cross-sectional area of the epithelium in contact with apical solution. Total percent drug transport was calculated by dividing the cumulative amount of molecules transported with the original loading concentrations.
A further data set deals with rat jejunum. Further details: method as in 2 sources, ref 33 = [33]; PMID 21501675; doi:10.1016/j.ijpharm.2011.04.003; 33 Woitiski CB , Sarmento B , Carvalho RA , Neufeld RJ , Veiga F ( 2011 ) Facilitated nanoscale delivery of insulin across intestinal membrane models . Int J Pharm 412 : 123 – 131 . 21501675 10.1016/j ||| ref 36 = [36]; PMID 10227707; doi:10.1023/a:1018819012405; 36 Sinko PJ , Lee YH , Makhey V , Leesman GD , Sutyak JP , et al ( 1999 ) Biopharmaceutical approaches for developing and assessing oral peptide delivery strategies and systems: in vitro permeability. Conditions: cited from earlier work.

Data set [2] deals with Caco-2 monolayers. The data set can be described thus: Polypeptide transport across 3-day Caco-2 monolayers (ELISA). Format: in vitro ADME, Human. Conditions: 3-day Caco-2, apical-to-basolateral, room temperature, mean±SD n = 3; for Total amount transported to the basolateral side: 5 h. As to the method: (§1) Transport of three different macromolecular pharmaceutical peptides was studied across the Caco-2 monolayers at different loading concentrations. […] Different doses were selected for different polypeptides based upon the values reported in literature to not only approach therapeutic efficacy but also to provide a valid comparison with the results obtained in 21-day monolayer system. Polypeptides were incubated with Caco-2 monolayers for 5 hrs at room temperature with gentle shaking. TEER measurements were performed and samples were collected from basolateral chambers of the Caco-2 plates to determine total drug transport and apparent permeability at different concentrations.

Experiment in data set [3]: as above
The class given is in vitro ADME, Human. Conditions: human, 3-day Caco-2, apical-to-basolateral, room temperature, gentle shaking, mean±SD n = 3, read-out: Apparent Permeability (Papp). As to the method: as §1

Data set [4] relates to Caco-2 monolayers. The data set can be described thus: Validation of 3-day Caco-2 transwell system: FITC-insulin and sulforhodamine-B transport (fluorescence). Conditions: for Apparent Permeability (Papp) / % Transport in 5 hours / Cumulative amount transported to basolateral chamber: room temperature, fluorescence, mean±SD n = 3; for Apparent Permeability (Papp): gentle shaking; for Cumulative amount transported to basolateral chamber: after 5 h.
Method: as §2, §3, §4, §5, §6, §7

Setting [5] is: apical loading 0.005 mg (5 µg/well).
The mark [6] stands for this setting: apical loading 0.024 mg (24 µg/well).

Turning to “FITC-Insulin: fluorescein isothiocynate conjugated bovine insulin (Sigma Aldrich)”, in the data set on Caco-2 monolayers [1], the “Apparent permeability coefficients (Papp), range over the loadings studied” value was 8.2±1.8-10.5±1.8 and the “Effect on Caco-2 monolayer integrity during transport” value is reported as “without damaging the monolayer”.

For the compound `CC(C)C[C@H](NC(=O)[C@H](CCCCN)NC(=O)CNC(=O)[C@H](CC(C)C)NC(=O)[C@@H](NC(=O)[C@@H]1CSSC[C@H](N)C(=O)N[C@@H](CO)C(=O)N[C@@H](CC(N)=O)C(=O)N[C@@H](CC(C)C)C(=O)N[C@@H](CO)C(=O)N[C@@H]([C@@H](C)O)C(=O)N1)C(C)C)C(=O)N[C@@H](CO)C(=O)N[C@@H](CCC(N)=O)C(=O)N[C@@H](CCC(=O)O)C(=O)N[C@@H](CC(C)C)C(=O)N[C@@H](Cc1c[nH]cn1)C(=O)N[C@@H](CCCCN)C(=O)N[C@@H](CC(C)C)C(=O)N[C@@H](CCC(N)=O)C(=O)N[C@H](C(=O)N[C@@H](Cc1ccc(O)cc1)C(=O)N1CCC[C@H]1C(=O)N[C@@H](CCCNC(=N)N)C(=O)N[C@H](C(=O)N[C@@H](CC(N)=O)C(=O)N[C@H](C(=O)NCC(=O)N[C@@H](CO)C(=O)NCC(=O)N[C@H](C(=O)N1CCC[C@H]1C(N)=O)[C@@H](C)O)[C@@H](C)O)[C@@H](C)O)[C@@H](C)O` [Salmon Calcitonin], in the data set on rat jejunum, the “Permeability through rat jejunum” value is on record as 1.9±0.5 ×10^−6 cm/sec. Besides, the “Total amount transported to the basolateral side” value with Caco-2 monolayers [2] (apical loading 5 µg/well) worked out at 55 ± 2 ng; with Caco-2 monolayers [2] (apical loading 24 µg/well) it was 192 ± 95 ng. For the same compound, the “% Transport in 5 hours” value in the data set with Caco-2 monolayers [2] (setting [5]) is recorded as 1.1±0.04%; with Caco-2 monolayers [2] (setting [6]), 0.8±0.4%. Further, the Papp A→B at 5 h, 5 µg/well in data set [3] (setting [5]) was determined as 2 ± 0.07 ×10⁻⁶ cm/s. Also, the Papp A→B at 5 h, 24 µg/well in data set [3] (setting [6]) turned out to be 1.5 ± 0.7 ×10⁻⁶ cm/s.

Regarding `CCN(CC)c1ccc2c(-c3ccc(S(=O)(=O)O)cc3S(=O)(=O)[O-])c3ccc(=[N+](CC)CC)cc-3oc2c1` [Sulforhodamine-B, sulforhodamine B], the “Apparent Permeability (Papp)” value is 5.0±2.9 10^−6 cm/s in the data set on Caco-2 monolayers [4] (3-day Caco-2 (BD Biocoat HTS, serum-free), apical-to-basolateral, apical loading 0.05 mg/well in 500 µl basal seeding medium, 30 min pre-conditioning, 5 h); 5.3±0.8 10^−6 cm/s in the data set on Caco-2 monolayers [4] (3-day Caco-2, apical-to-basolateral, apical loading 0.3 mg/well in 500 µl, 5 h); 4.0±0.6 10^−6 cm/s in the data set with Caco-2 monolayers [4] (3-day Caco-2, apical-to-basolateral, apical loading 0.6 mg/well in 500 µl, 5 h); 4.9±0.9 10^−6 cm/s in the data set on Caco-2 monolayers [4] (3-day Caco-2, apical-to-basolateral, apical loading […] in 500 µl, 5 h). Also, the “% Transport in 5 hours” value with Caco-2 monolayers [4] (3-day Caco-2, apical-to-basolateral, apical loading 0.05 mg/well, 5 h) was determined as 2.8±1.6%; with Caco-2 monolayers [4] (3-day Caco-2, apical-to-basolateral, apical loading 0.3 mg/well, 5 h), 2.9±0.4%; in the data set on Caco-2 monolayers [4] (3-day Caco-2, apical-to-basolateral, apical loading 0.6 mg/well, 5 h) it was 2.3±0.4%. In addition, the “Cumulative amount transported to basolateral chamber” value is 0.002 ± 0.0008 mg in the data set with Caco-2 monolayers [4] (3-day Caco-2, apical-to-basolateral, apical loading 0.05 mg/well); 0.009 ± 0.001 mg in the data set on Caco-2 monolayers [4] (3-day Caco-2, apical-to-basolateral, apical loading 0.3 mg/well); 0.01 ± 0.002 mg in the data set with Caco-2 monolayers [4] (3-day Caco-2, apical-to-basolateral, apical loading 0.6 mg/well). For the same compound, in the data set on Caco-2 monolayers [4] (3-day Caco-2, different loading concentrations, 5 h, TEER), the “Effect on Caco-2 monolayer integrity during transport” value is listed as “without damaging the monolayer”.

Values taken from publication PMC3586668 (PLoS ONE, 2013).
